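Briefly, cells in 96-well plates were exposed to five compound concentrations for 48 h, and endpoints were estimated by linear interpolation. GI50 marks 50% less growth.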 The source made the active and inactive calls. Rule as the data show it: active = GI50 up to about 1.1 µM and inactive = higher.
Columns and labels:
Assay in all cases: inhibition of tumour cell growth, NCI panel, 48 h
[1] = tested on: 786-0
[2] = tested on: A498
[3] = tested on: A549
[4] = tested on: ACHN
[5] = tested on: BT-549
[6] = tested on: CAKI-1
[7] = tested on: CCRF-CEM
[8] = tested on: COLO 205
[9] = tested on: DU-145
[10] = tested on: EKVX
[11] = tested on: HCC 2998
[12] = tested on: HCT-116
[13] = tested on: HCT-15
[14] = tested on: HL-60
[15] = tested on: HOP-62
[16] = tested on: HT-29
[17] = tested on: Hs-578T
[18] = tested on: IGROV-1
[19] = tested on: K562
[20] = tested on: KM12
[21] = tested on: LOX IMVI
[22] = tested on: M14
[23] = tested on: MCF7
[24] = tested on: MDA-MB-231
[25] = tested on: MDA-MB-435
[26] = tested on: MDA-N
[27] = tested on: MOLT-4
[28] = tested on: Malme-3M
[29] = tested on: NCI-H226
[30] = tested on: NCI-H23
[31] = tested on: NCI-H460
[32] = tested on: NCI-H522
[33] = tested on: NCI/ADR-RES
[34] = tested on: OVCAR-3
[35] = tested on: OVCAR-4
[36] = tested on: OVCAR-5
[37] = tested on: OVCAR-8
[38] = tested on: PC-3
[39] = tested on: RPMI-8226
[40] = tested on: RXF 393
[41] = tested on: SF-268
[42] = tested on: SF-295
[43] = tested on: SF-539
[44] = tested on: SK-MEL-28
[45] = tested on: SK-MEL-2
[46] = tested on: SK-OV-3
[47] = tested on: SN12C
[48] = tested on: SNB-19
[49] = tested on: SNB-75
[50] = tested on: SW-620
[51] = tested on: T47D
[52] = tested on: TK-10
[53] = tested on: U-251
[54] = tested on: UACC-257
[55] = tested on: UACC-62
[56] = tested on: HOP-92
[57] = tested on: SK-MEL-5
[58] = tested on: UO-31

SMILES: CCOC(=O)/C(C(=O)Nc1cccc(Cl)c1)=C(/N)N1CCCC1
- GI50 [1]: > 100 µM (inactive)
- GI50 [2]: > 100 µM (inactive)
- GI50 [3]: > 100 µM (inactive)
- GI50 [4]: > 100 µM (inactive)
- GI50 [5]: > 100 µM (inactive)
- GI50 [6]: > 100 µM (inactive)
- GI50 [7]: > 100 µM (inactive)
- GI50 [8]: > 100 µM (inactive)
- GI50 [9]: > 100 µM (inactive)
- GI50 [10]: > 100 µM (inactive)
- GI50 [11]: > 100 µM (inactive)
- GI50 [12]: > 100 µM (inactive)
- GI50 [13]: > 100 µM
- GI50 [14]: > 100 µM (inactive)
- GI50 [15]: > 100 µM (inactive)
- GI50 [16]: > 100 µM (inactive)
- GI50 [17]: > 100 µM (inactive)
- GI50 [18]: > 100 µM (inactive)
- GI50 [19]: > 100 µM (inactive)
- GI50 [20]: > 100 µM (inactive)
- GI50 [21]: > 100 µM (inactive)
- GI50 [22]: > 100 µM (inactive)
- GI50 [23]: > 100 µM (inactive)
- GI50 [24]: > 100 µM (inactive)
- GI50 [25]: > 100 µM (inactive)
- GI50 [26]: > 100 µM (inactive)
- GI50 [27]: > 100 µM (inactive)
- GI50 [28]: > 100 µM (inactive)
- GI50 [29]: > 100 µM (inactive)
- GI50 [30]: > 100 µM (inactive)
- GI50 [31]: > 100 µM (inactive)
- GI50 [32]: > 100 µM (inactive)
- GI50 [33]: > 100 µM (inactive)
- GI50 [34]: > 100 µM (inactive)
- GI50 [35]: > 100 µM (inactive)
- GI50 [36]: > 100 µM (inactive)
- GI50 [37]: > 100 µM (inactive)
- GI50 [38]: > 100 µM (inactive)
- GI50 [39]: > 100 µM (inactive)
- GI50 [40]: > 100 µM (inactive)
- GI50 [41]: > 100 µM (inactive)
- GI50 [42]: > 100 µM (inactive)
- GI50 [43]: > 100 µM (inactive)
- GI50 [44]: > 100 µM (inactive)
- GI50 [45]: > 100 µM (inactive)
- GI50 [46]: > 100 µM (inactive)
- GI50 [47]: > 100 µM (inactive)
- GI50 [48]: > 100 µM (inactive)
- GI50 [49]: > 100 µM (inactive)
- GI50 [50]: > 100 µM (inactive)
- GI50 [51]: > 100 µM (inactive)
- GI50 [52]: > 100 µM (inactive)
- GI50 [53]: > 100 µM (inactive)
- GI50 [54]: > 100 µM (inactive)
- GI50 [55]: > 100 µM (inactive)

SMILES: O=C(/C=C/c1ccc(Cl)cc1)Oc1ccc(C=C2CCC/C(=C\c3ccc(OC(=O)/C=C/c4ccc(Cl)cc4)cc3)C2=O)cc1
- GI50 [1]: > 100 µM (inactive)
- GI50 [2]: > 100 µM (inactive)
- GI50 [3]: > 100 µM (inactive)
- GI50 [4]: > 100 µM (inactive)
- GI50 [5]: > 100 µM (inactive)
- GI50 [6]: > 100 µM (inactive)
- GI50 [8]: > 100 µM (inactive)
- GI50 [9]: > 100 µM (inactive)
- GI50 [10]: > 100 µM (inactive)
- GI50 [11]: > 100 µM (inactive)
- GI50 [12]: > 100 µM (inactive)
- GI50 [13]: > 100 µM
- GI50 [15]: > 100 µM (inactive)
- GI50 [56]: > 100 µM (inactive)
- GI50 [16]: > 100 µM (inactive)
- GI50 [17]: > 100 µM (inactive)
- GI50 [18]: > 100 µM (inactive)
- GI50 [19]: > 100 µM (inactive)
- GI50 [20]: > 100 µM (inactive)
- GI50 [21]: > 100 µM (inactive)
- GI50 [22]: > 100 µM (inactive)
- GI50 [23]: > 100 µM (inactive)
- GI50 [24]: > 100 µM (inactive)
- GI50 [25]: > 100 µM (inactive)
- GI50 [26]: > 100 µM (inactive)
- GI50 [27]: > 100 µM (inactive)
- GI50 [28]: > 100 µM (inactive)
- GI50 [29]: > 100 µM (inactive)
- GI50 [30]: > 100 µM (inactive)
- GI50 [31]: > 100 µM (inactive)
- GI50 [32]: > 100 µM (inactive)
- GI50 [33]: > 100 µM (inactive)
- GI50 [34]: > 100 µM (inactive)
- GI50 [35]: > 100 µM (inactive)
- GI50 [36]: > 100 µM (inactive)
- GI50 [37]: > 100 µM (inactive)
- GI50 [38]: > 100 µM (inactive)
- GI50 [39]: > 45.9 µM (inactive)
- GI50 [40]: > 100 µM (inactive)
- GI50 [41]: > 100 µM (inactive)
- GI50 [42]: > 100 µM (inactive)
- GI50 [43]: > 100 µM (inactive)
- GI50 [44]: > 100 µM (inactive)
- GI50 [45]: > 100 µM (inactive)
- GI50 [57]: > 100 µM (inactive)
- GI50 [46]: > 100 µM (inactive)
- GI50 [47]: > 100 µM (inactive)
- GI50 [48]: > 100 µM (inactive)
- GI50 [49]: > 79.1 µM (inactive)
- GI50 [50]: > 100 µM (inactive)
- GI50 [51]: > 100 µM (inactive)
- GI50 [52]: > 100 µM (inactive)
- GI50 [53]: > 100 µM (inactive)
- GI50 [54]: > 100 µM (inactive)
- GI50 [55]: > 100 µM (inactive)
- GI50 [58]: > 100 µM (inactive)

SMILES: C[C@@H]1OC(=O)C[C@H]2CC(=O)N(CCC3CN(C(=O)OCc4ccccc4)c4ccccc43)C[C@@H]21 (stereo partly drawn)
- GI50 [1]: > 100 µM (inactive)
- GI50 [2]: > 100 µM (inactive)
- GI50 [3]: > 100 µM (inactive)
- GI50 [4]: > 100 µM (inactive)
- GI50 [5]: > 100 µM (inactive)
- GI50 [6]: > 100 µM (inactive)
- GI50 [8]: > 100 µM (inactive)
- GI50 [9]: > 100 µM (inactive)
- GI50 [10]: > 100 µM (inactive)
- GI50 [11]: > 100 µM (inactive)
- GI50 [12]: > 100 µM (inactive)
- GI50 [13]: > 100 µM
- GI50 [15]: > 100 µM (inactive)
- GI50 [56]: > 100 µM (inactive)
- GI50 [16]: > 100 µM (inactive)
- GI50 [17]: > 100 µM (inactive)
- GI50 [18]: > 100 µM (inactive)
- GI50 [19]: > 100 µM (inactive)
- GI50 [20]: > 100 µM (inactive)
- GI50 [22]: > 100 µM (inactive)
- GI50 [23]: > 100 µM (inactive)
- GI50 [24]: > 100 µM (inactive)
- GI50 [25]: > 100 µM (inactive)
- GI50 [26]: > 100 µM (inactive)
- GI50 [27]: > 100 µM (inactive)
- GI50 [28]: > 100 µM (inactive)
- GI50 [30]: > 100 µM (inactive)
- GI50 [31]: > 100 µM (inactive)
- GI50 [32]: > 100 µM (inactive)
- GI50 [33]: > 100 µM (inactive)
- GI50 [34]: > 100 µM (inactive)
- GI50 [35]: > 100 µM (inactive)
- GI50 [36]: > 100 µM (inactive)
- GI50 [37]: > 100 µM (inactive)
- GI50 [38]: > 100 µM (inactive)
- GI50 [39]: > 100 µM (inactive)
- GI50 [40]: > 100 µM (inactive)
- GI50 [41]: > 100 µM (inactive)
- GI50 [42]: > 100 µM (inactive)
- GI50 [44]: > 100 µM (inactive)
- GI50 [45]: > 100 µM (inactive)
- GI50 [57]: > 100 µM (inactive)
- GI50 [46]: > 100 µM (inactive)
- GI50 [48]: > 100 µM (inactive)
- GI50 [49]: > 100 µM (inactive)
- GI50 [50]: > 100 µM (inactive)
- GI50 [51]: > 100 µM (inactive)
- GI50 [52]: > 100 µM (inactive)
- GI50 [53]: > 100 µM (inactive)
- GI50 [54]: > 100 µM (inactive)
- GI50 [55]: > 100 µM (inactive)
- GI50 [58]: > 100 µM (inactive)

Source: ChEMBL document CHEMBL1201862, “PubChem BioAssay data set” (2004)
